Assay results as given in PubChem BioAssay (NCI).
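Following 48 hours of exposure in 96-well plates, responses at five concentrations were used to interpolate endpoints linearly. TGI: total growth inhibition.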

Assays:
Assay in all cases: NCI anticancer screen, dose series, 48 h
DLD-1 colon = test system: DLD-1 colon
KM20L2 colon = test system: KM20L2 colon
XF 498 CNS = test system: XF 498 CNS
DMS 273 small cell lung = test system: DMS 273 small cell lung
SNB-78 CNS = test system: SNB-78 CNS
HOP-18 NSCLC = test system: HOP-18 NSCLC
LXFL 529 NSCLC = test system: LXFL 529 NSCLC

## CCC1CCc2c(c(=O)oc3c2cc(OC)c2cccc(OC)c23)C1 (configuration not stated)
DLD-1 colon
  TGI: > 100 µM
KM20L2 colon
  TGI: > 100 µM
XF 498 CNS
  TGI: 78.6 µM
DMS 273 small cell lung
  TGI: > 100 µM
SNB-78 CNS
  TGI: > 100 µM
HOP-18 NSCLC
  TGI: > 100 µM
LXFL 529 NSCLC
  TGI: > 100 µM
